The record followed here is patent publication US5606037A, “Processes antineoplastic heteronaphthoquinones” (BioChem Pharma Inc., priority 1995, dated 1997).

One may read the IC50 as the midpoint of a concentration-inhibition curve.

Assay type in all cases: cell-based, Human
Experiment [1] concerns HT 29 (Colon adenocarcinoma). Description: In vitro cytotoxicity, microculture tetrazolium (MTT) assay, HT29. Particulars: further 48 h, Table 1. Here is the method:
(§1) The microculture tetrazolium assay was used to test in vitro cytotoxicity. This assay is described in Plumb, J. A. et al., 1989 Cancer Research 49, 4435-4440, which is herein incorporated by reference. The cytotoxicity of compounds towards tumor cells is measured in vitro using the assay. This assay method is based upon the ability of live, but not dead cells to reduce the yellow water soluble dye 3-(4,5-dimethylthiazol-2-yl)-2,5-diphenyltetrazolium bromide (MTT) to its water insoluble purple formazan product.
(§2) Human Tumor Cell lines, used were:
HT 29 (Colon adenocarcinoma) ATCC catalog #HTB-38.
(§3) The cells were maintained in exponential growth in culture in minimal essential media (MEM) supplemented with non-essential amino acids, and containing 15% (v/v) fetal. bovine serum, 5 mM L-glutamine, 1 mM sodium pyruvate, and 0.1 U/ml insulin. All cell lines were grown at 37° C. in an atmosphere of 5% CO2 in air.
(§4) MTT: 2 mg/ml in phosphate buffered saline (stable at 4° C. in dark for 1 week).
(§5) Sorensen's buffer: 0.1M glycine/NaOH, pH 10.5, containing 0.1M NaCl.
(§6) Test compounds: 20 mM in DMSO and diluted to a final concentration of 200 μM in culture medium before use.
(§7) For each assay, doxorubicin is included as an inter-assay standard. This allows us to monitor the behaviour of the assay in general, and in particular, to check that the SKVLB line has maintained its resistant phenotype.
(§8) The assays are carried out in 96-well (8 well×12 well) microtiter plates. Serial dilutions of the compound are tested along the length of the plate. A 1:3 serial dilution of compound in culture medium covers a concentration range from 100 μM to 1.7 nM. Each concentration of compound is tested in quadruplet, allowing two compounds to be tested per plate. Wells containing no cells (blank) and cells with no test compound (control) are included on each plate.
(§9) Cells are plated out in 100 μl of culture medium in the microtiter plates at a density of around 1,500-4,000 cells per well. The plates are incubated overnight to allow the cells to become adherent after which the test compound is added (100 μl of appropriate dilution per well). The cells are incubated with test compound at 37° C. for 48 h after which the compound is replaced with fresh medium. After a further 48 h incubation at 37° C., 50 μl of MTT solution (2 mg/ml) is added to each well. The plates are incubated in the dark for 4 h at 37° C. after which the medium is removed. The MTT formazan product is extracted from the cells by the addition of 200 μl DMSO followed by 50 μl of Sorensen's buffer. The plates are shaken briefly and the absorbance at 570 nm is read using a Molecular Devices UV max plate reader. Curves are fit to the MTT assay data using a four parameter logistic equation, and the data are normalized to fit a 0% to 100% survival scale.

Experiment [2] has as its system SKOV3 (Ovarian adenocarcinoma). Nature of the experiment: In vitro cytotoxicity, microculture tetrazolium (MTT) assay, SKOV3. Particulars: SKOV3 ovarian adenocarcinoma, 48 h with compound, further 48 h, MTT, Table 1. The protocol:
as §1, §2
SKOV3 (Ovarian adenocarcinoma)--provided by Dr. V. Ling, Ontario Cancer Institute.
as §3, §4, §5, §6, §7, §8, §9

Experiment [3] has as its system T47D (Ductal carcinoma of breast). Nature of the experiment: In vitro cytotoxicity, microculture tetrazolium (MTT) assay, T47D. Particulars: 48 h with compound, further 48 h, Table 1. Here is the method: as §1, §2
T47D (Ductal carcinoma of breast)--ATCC catalog #HTB-133.
as §3, §4, §5, §6, §7, §8, §9

Experiment [4] relates to Lox (Melanoma). Nature of the experiment: In vitro cytotoxicity, microculture tetrazolium (MTT) assay, LOX. The following applies: 48 h with compound, further 48 h, Table 1. Here is the method:
as §1, §2
Lox (Melanoma)--Southern Research Institute.
as §3, §4, §5, §6, §7, §8, §9

Experiment [5] concerns SKVLB (Ovarian; multidrug resistant). Nature of the experiment: In vitro cytotoxicity, microculture tetrazolium (MTT) assay, SKVLB. The following applies: Homo sapiens; SKVLB multidrug resistant ovarian; 48 h with compound, further 48 h, MTT; Table 1. The protocol: as §1, §2
SKVLB (Ovarian; multidrug resistant)--Dr. V. Ling, Ontario Cancer Institute.
as §3, §4, §5, §6, §7, §8, §9

Where [6] appears, read: Homo sapiens, HT-29, 48 h with compound.

Structures can show the parent of a compound that is named as a salt.

Turning to `COC1OC(C(=O)NCCN2CCCC2)=CC2=C1C(=O)c1ccccc1C2=O` (stereo not shown) [BCH2839, 1-methoxy-3-[2-(N-pyrrolidinyl)ethylaminocarbonyl]-5,10-dioxo-5,10-dihydro-1H-naphtho-[2,3-c]-pyran hydrochloride salt], the IC50 in experiment [1] (setting [6]) is 0.174 to 0.49 µM; in experiment [2] (Homo sapiens, SK-OV-3), 0.0365 to 0.0461 µM; in experiment [3] (Homo sapiens), 0.0581 to 0.291 µM; in experiment [4] (Homo sapiens) it was 0.262 to 0.975 µM; in experiment [5] it was 0.224 to 0.46 µM.
Turning to `CC(NC(=O)C(F)(F)F)[C@H]1CC2=C(C(=O)c3ccccc3C2=O)[C@H](O[C@H]2C[C@H](O)[C@H](O)[C@H](C)O2)O1` (stereo partly drawn) [BCH2018, (1'S,1S,3R)-3-(trifluoroacetamidoethyl)-5,10-dioxo-1-(2',3',6'-trideoxy-3',4'-dihydroxy-L-lyxohexopyranose)-3,4,5,10-tetrahydro-1H-naphtho-[2,3-c]-pyran], the concentration for half-maximal inhibition (IC50) is 14.2 µM in experiment [1] (48 h with compound), 3.11 µM in experiment [2], 8.56 µM in experiment [3] and 2.38 µM in experiment [4].
`CC[C@H]1CO[C@H](O[C@H]2C[C@H](NC(=O)C(F)(F)F)[C@H](O)[C@H](C)O2)C2=C1C(=O)c1ccccc1C2=O` [BCH2091, (1'S, 1R, 4R)-5,10-dioxo-4-ethyl-1-(2',3',6'-trideoxy-3'-trifluoroacetamido-L-lyxohexopyranose)-3,4,5,10-tetrahydro-1H-naphtho-[2,3-c]pyran]: the 50% inhibitory concentration (IC50) was 11.3 µM in experiment [1] (setting [6]); 13.4 µM in experiment [2] (Homo sapiens, SK-OV-3); 16 µM in experiment [3] (Homo sapiens); 3.3 µM in experiment [4] (Homo sapiens); 32 µM in experiment [5].
With `COC1OC(C(=O)NCCCn2ccnc2)=CC2=C1C(=O)c1ccccc1C2=O` (stereo not shown) [BCH2157, (3-N-hydrochloroimidazolylpropyl)-1-methoxy-5,10-dioxo-5,10-dihydro-1H-naphtho-[2,3-c]-pyran-3-carboxamide], the IC50 in experiment [1] (48 h with compound) came to 1.23 µM; in experiment [2], 0.187 µM; in experiment [3] it was 0.233 µM; in experiment [4], 0.0155 µM.
With `CC[C@H]1CC2=C(C(=O)c3ccccc3C2=O)[C@H](O[C@H]2C[C@H](N)[C@H](O)[C@H](C)O2)O1` [BCH2021, (1'S,1S,3S)-5,10-dioxo-3-ethyl-1-(2',3',6'-trideoxy-3'-amino-L-lyxohexopyranose)-3,4,5,10-tetrahydro-1H-naphtho-[2,3-c]-pyran hydrochloride], the IC50 was 37.8 µM in experiment [1] (setting [6]); 12.4 µM in experiment [2] (Homo sapiens, SK-OV-3); 19 µM in experiment [3] (Homo sapiens); 10.6 µM in experiment [4] (Homo sapiens); 46.4 µM in experiment [5].
In the case of `CC(=O)C1CC2=C(C(=O)c3ccccc3C2=O)C(O[C@H]2C[C@H](O)[C@H](O)[C@H](C)O2)O1` (mixture of isomers) [BCH2117, (1'S,1S,3R) and (1'S,1R,3S)-methyl-(1-[dideoxy-2',6'-dihydroxy-3',4'-L-lyxohexopyranose]-5,10-dioxo-3,4,5,10-tetrahydronaphtho-[2,3-c]-pyran-3-yl) ketone], the IC50 was found to be 0.03 µM in experiment [1] (setting [6]); 0.0095 µM in experiment [2] (Homo sapiens, SK-OV-3); 0.0374 µM in experiment [3] (Homo sapiens); 0.073 µM in experiment [4] (Homo sapiens).
With `CC(=O)[C@H]1CC2=C(C(=O)c3ccccc3C2=O)[C@H](O[C@@H]2O[C@@H](C)[C@@H](O)[C@@H](O)[C@H]2I)O1` [BCH2014, (1'S,1S,3R)-methyl-(1-[2',6'-dideoxy-3',4'-dihydroxy-2'-iodo-L-lyxohexopyranose]-5,10-dioxo-3,4,5,10-tetrahydronaphtho[2,3-c]-pyran-3-yl)-ketone], the 50% inhibitory concentration (IC50) in experiment [1] (setting [6]) is 61.3 µM; in experiment [2] (Homo sapiens, SK-OV-3) it was 21.5 µM; in experiment [3] (Homo sapiens), 61.8 µM; in experiment [4] (Homo sapiens) it was 35.9 µM; in experiment [5], 39.8 µM.
Consider `COC1OC(C(=O)Nc2ccccc2)=CC2=C1C(=O)c1ccccc1C2=O` (stereo not shown) [BCH2044, 1-methoxy-3-N-anilinylcarbonyl-5,10-dioxo-5,10-dihydro-1H-naphtho-[2,3-c]-pyran], for which the IC50 in experiment [1] (setting [6]) came out at 0.194 µM; in experiment [2] (Homo sapiens, SK-OV-3), 1.44 µM; in experiment [3] (Homo sapiens), 4.25 µM; in experiment [4] (Homo sapiens), 0.38 µM; in experiment [5] it was 5.11 µM.
Turning to `C[C@@H]1O[C@@H](O[C@H]2O[C@H](COc3ccccc3)CC3=C2C(=O)c2ccccc2C3=O)C[C@H](NC(=O)C(F)(F)F)[C@@H]1O` [BCH2032, (1'S, 1R, 3S)-5,10-dioxo-3-phenyloxymethyl-1-(2',3',6'-trideoxy-3'-trifluoroacetamido-L-lyxohexopyranose)-3,4,5,10-tetrahydro-1H-naphtho-[2,3-c]pyran], the IC50 is 8.49 to 9.3 µM in experiment [1] (setting [6]); 6.01 to 12 µM in experiment [2] (Homo sapiens, SK-OV-3); 15.8 to 23 µM in experiment [3] (Homo sapiens); 2.83 to 5.1 µM in experiment [4] (Homo sapiens); 17.6 to 28 µM in experiment [5].
Turning to `CO[C@H]1C[C@H](O[C@H]2O[C@H](C(C)=O)CC3=C2C(=O)c2ccccc2C3=O)O[C@@H](C)[C@H]1OS(C)(=O)=O` [BCH2070, (1'-S, 1-R, 3-S)-methyl-(1-[2',3',4',6' tetradeoxy-3'-methoxy-4'-O-methanesulfonyl-L-lyxohexopyranose)-5,10-dioxo-3,4,5,10 tetrahydronaphtho-[2,3-c]pyran-3-yl) ketone], the 50% inhibitory concentration (IC50) in experiment [1] (setting [6]) is 0.006 to 0.534 µM; in experiment [2] (Homo sapiens, SK-OV-3), 0.0084 µM; in experiment [3] (Homo sapiens), 0.018 µM; in experiment [4] (Homo sapiens), 0.015 µM; in experiment [5], 0.12 µM.
As to `CCCC1OC(C(=O)NCCCN(C)C)=CC2=C1C(=O)c1ccccc1C2=O` (stereo not shown) [BCH2168, 1-propyl-3-(3-dimethylaminopropylaminocarbonyl)-5,10-dihydro-5,10-dioxo-1H-naphtho-[2,3-c]-pyran], the IC50 in experiment [1] (setting [6]) is 0.393 to 1.2 µM; in experiment [2] (Homo sapiens, SK-OV-3), 0.18 to 0.276 µM; in experiment [3] (Homo sapiens), 0.573 µM; in experiment [5], 0.98 µM.
Consider `C=C(C)[C@H]1CC2=C(C(=O)c3ccccc3C2=O)[C@H](OC)O1` (relative stereo) [BCH2148, (trans)-5,10-dioxo-3-isopropenyl-1-methoxy-3,4,5,10-tetrahydro-1H-naphtho-[2,3-c]-pyran], for which the concentration for half-maximal inhibition (IC50) in experiment [1] (setting [6]) came to 7.5 µM; in experiment [2] (Homo sapiens, SK-OV-3), 12.6 µM; in experiment [3] (Homo sapiens), 2.36 µM; in experiment [5], 9.93 µM.
Take `CO[C@@H]1O[C@H](C(=O)O)CC2=C1C(=O)c1ccccc1C2=O` (relative stereo) [BCH2119, (1,3-cis)-1-methoxy-3-carboxyl-5,10-dioxo-3,4,5,10-tetrahydro-1H-naphtho-[2,3-c]-pyran]: the IC50 in experiment [1] (setting [6]) was > 100 µM; in experiment [2] (Homo sapiens, SK-OV-3), > 100 µM; in experiment [3] (Homo sapiens), > 100 µM; in experiment [5] it was > 100 µM.
For `C=CCC1CC2=C(C(=O)c3ccccc3C2=O)C(OC2CC(NC(=O)C(F)(F)F)C(O)C(C)O2)O1` (stereo not shown) [BCH1648], the concentration for half-maximal inhibition (IC50) was found to be 0.309 µM in experiment [1] (setting [6]); 0.0519 µM in experiment [2] (Homo sapiens, SK-OV-3); 0.36 µM in experiment [3] (Homo sapiens); 0.138 µM in experiment [4] (Homo sapiens).
Take `CC(=O)[C@H]1CC2=C(C(=O)c3ccccc3C2=O)[C@H](O[C@H]2C[C@H](NC(=O)C(F)(F)F)[C@H](OC(=O)CBr)[C@H](C)O2)O1` [BCH2105, (1'-S, 1-S, 3-R)-methyl-(1-[2',3',4',6' tetradeoxy-3'-trifluoroacetamido-4'-O-(2-bromo-acetyl)-L-lyxopyranose]-5, 10-dioxo-3,4,5,10 tetrahydronaphtho-[2,3-c]pyran-3-yl) ketone]: the IC50 in experiment [1] (setting [6]) came to 0.0069 µM; in experiment [2] (Homo sapiens, SK-OV-3), 0.003 µM; in experiment [3] (Homo sapiens) it was 0.019 µM; in experiment [4] (Homo sapiens), 0.025 µM.
